The record followed here is US8513232B2, “Substituted spirocyclic piperidine derivatives as histamine-3 (H3) receptor ligands” (Cephalon, Inc., priority 2008, dated 2013).

The target of one experiment is T1, human H3 receptor (Homo sapiens, UniProt Q9Y5N1).
T1 construct: expressed in transfected cells
In words: Human H3 radioligand binding ([3H]-N-alpha-methylhistamine, SPA). Particulars: Table A; human H3 binding; read-out: Human Ki. The procedure:
(§1) Methods: CHO cells stably expressing the human H3 receptor (GenBank: NM_007232) were harvested and cell pellets were frozen (−80° C.). Cell pellets were resuspended in 5 mM Tris-HCl, pH 7.5 with […] and a cocktail of protease inhibitors (Complete Protease Inhibitior Tablets, Roche Diagnostics). Cells were disrupted using a polytron cell homogenizer and the suspension was centrifuged at 1000×g for 10 minutes at 4° C. The pellet was discarded and the supernatant centrifuged at 40,000×g for 30 min at 4° C. This membrane pellet was washed in membrane buffer containing 50 mM Tris-HCl, pH 7.5 with 0.6 mM EDTA, 5 mM MgCl2 and protease inhibitors, recentrifuged as above and the final pellet resuspended in membrane buffer plus 250 mM sucrose and frozen at −80° C.
(§2) Radioligand Binding. Membranes were resuspended in 50 mM Tris HCl (pH 7.4), 5 mM MgCl2, 0.1% BSA. The membrane suspensions (10 μg protein per well) were incubated in a 96 well microtiter plate with [^3H]-N-alpha-methylhistamine (approximately 1 nM final concentration), test compounds at various concentrations (0.01 nM-30 μM) and scintillation proximity beads (Perkin Elmer, FlashBlueGPCR Scintillating Beads) in a final volume of 80 μl for 4 hours at room temperature, protected from light. Non-specific binding was determined in the presence of 10 μM clobenpropit. Radioligand bound to receptor, and therefore in proximity to the scintillation beads, was measured using a MicroBeta scintillation counter.

For experiment [1], the target named is T2, rat histamine H3 receptor (Rattus norvegicus, UniProt Q9QYN8).
T2 construct: encoding the entire 445-amino-acid rat histamine H3 receptor; expressed in transfected cells; membrane preparation
In words: Rat H3 radioligand binding ([3H]-N-alpha-methylhistamine, SPA). The conditions noted are these: Table A; rat H3 binding; read-out: Rat Ki.
Description: as §1, with “Cell line development and membrane preparation. The rat” for “Methods: CHO cells stably expressing the human”, “cDNA was PCR amplified from reverse-transcribed RNA pooled from rat thalamus, hypothalamus, striatum and prefrontal cortex with a sequence corresponding to by #338-1672 of Genbank file #NM_053506, encoding the entire 445-amino-acid rat histamine H3 receptor. This was engineered into the pIRES-neo3 mammalian expression vector, which was stably transfected into the CHO-A3 cell line (Euroscreen, Belgium), followed by clonal selection by limiting dilution. Cells” for “(GenBank: NM_007232)”
as §2

T2 sequence (Q9QYN8 whole entry): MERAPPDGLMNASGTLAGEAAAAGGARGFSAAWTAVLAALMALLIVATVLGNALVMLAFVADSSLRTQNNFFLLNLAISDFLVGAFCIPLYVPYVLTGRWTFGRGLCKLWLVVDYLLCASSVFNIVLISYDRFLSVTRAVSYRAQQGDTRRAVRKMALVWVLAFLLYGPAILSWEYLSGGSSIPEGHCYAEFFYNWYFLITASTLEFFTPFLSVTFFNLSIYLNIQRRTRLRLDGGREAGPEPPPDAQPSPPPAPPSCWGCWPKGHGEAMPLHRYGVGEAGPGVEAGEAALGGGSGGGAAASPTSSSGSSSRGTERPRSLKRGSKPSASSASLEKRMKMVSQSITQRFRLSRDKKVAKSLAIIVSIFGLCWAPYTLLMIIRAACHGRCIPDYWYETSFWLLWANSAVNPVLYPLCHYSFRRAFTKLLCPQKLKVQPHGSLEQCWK
T1 sequence (Q9Y5N1 whole entry): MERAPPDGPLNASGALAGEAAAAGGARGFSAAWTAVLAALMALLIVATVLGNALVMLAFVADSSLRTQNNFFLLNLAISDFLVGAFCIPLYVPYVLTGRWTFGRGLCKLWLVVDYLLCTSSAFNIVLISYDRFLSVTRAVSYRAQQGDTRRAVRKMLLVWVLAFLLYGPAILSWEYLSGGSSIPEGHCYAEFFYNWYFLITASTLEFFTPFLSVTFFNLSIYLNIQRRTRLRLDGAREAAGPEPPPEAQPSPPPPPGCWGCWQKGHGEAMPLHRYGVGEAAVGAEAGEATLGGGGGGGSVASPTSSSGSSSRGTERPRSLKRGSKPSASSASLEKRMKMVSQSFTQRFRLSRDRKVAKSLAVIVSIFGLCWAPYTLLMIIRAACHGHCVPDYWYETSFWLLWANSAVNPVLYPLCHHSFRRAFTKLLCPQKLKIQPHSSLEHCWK

Consider `Fc1ccc(-c2ccc3c(c2)COC2(CCN(C4CCC4)CC2)O3)cn1` [Example 1], for which the Ki (at human H3 receptor; in experiment [1]) was below 200 nM throughout.
Turning to `c1cc2c(cc1-c1ccc3c(c1)COC1(CCN(C4CCC4)CC1)O3)CCO2` [Example 2], the inhibitory constant (Ki) (at human H3 receptor; in experiment [1]) was below 200 nM each time.
For the compound `N#Cc1ccc(-c2ccc3c(c2)COC2(CCN(C4CCC4)CC2)O3)cc1` [Example 3], the inhibition constant (Ki) (at human H3 receptor; in experiment [1]) was below 200 nM throughout.
In the case of `c1ccc2oc(-c3ccc4c(c3)COC3(CCN(C5CCC5)CC3)O4)cc2c1` [Example 6], the inhibition constant Ki (as a rule, the equilibrium dissociation constant of an inhibitor or competing ligand from its target) at human H3 receptor was 200 to 1000 nM.
Regarding `c1cncc(-c2ccc3c(c2)COC2(CCN(C4CCC4)CC2)O3)c1` [Example 7], the inhibitory constant (Ki) (on human H3 receptor; in experiment [1]) was below 200 nM each time.
As for `O=C(c1ccc(-c2ccc3c(c2)COC2(CCN(C4CCC4)CC2)O3)cc1)N1CCCC1` [Example 8], the inhibition constant Ki (on human H3 receptor; in experiment [1]) was below 200 nM throughout.
With `O=C(c1ccc(-c2ccc3c(c2)COC2(CCN(C4CCC4)CC2)O3)cc1)N1CCOCC1` [Example 9], the Ki (at human H3 receptor; in experiment [1]) was below 200 nM in each case.
On to `c1cc(-c2ccc3c(c2)COC2(CCN(C4CCC4)CC2)O3)ccn1` [Example 10], for which the inhibition constant (Ki) (at human H3 receptor; in experiment [1]) was below 200 nM each time.
Turning to `CCOc1ccc(-c2ccc3c(c2)COC2(CCN(C4CCC4)CC2)O3)cn1` [Example 11], the Ki (on human H3 receptor; in experiment [1]) was below 200 nM throughout.
In the case of `c1csc(-c2ccc3c(c2)COC2(CCN(C4CCC4)CC2)O3)c1` [Example 12], the Ki (on human H3 receptor; in experiment [1]) was below 200 nM each time.
For the compound `c1cc(-c2ccc3c(c2)COC2(CCN(C4CCC4)CC2)O3)cs1` [Example 13], the Ki (at human H3 receptor; in experiment [1]) was below 200 nM in each case.
`O=C(NC1CC1)c1ccc(-c2ccc3c(c2)COC2(CCN(C4CCC4)CC2)O3)cc1` [Example 14]: the inhibition constant (Ki) (at human H3 receptor; in experiment [1]) was below 200 nM throughout.
On to `O=S(=O)(c1ccc(-c2ccc3c(c2)COC2(CCN(C4CCC4)CC2)O3)cc1)N1CCCC1` [Example 16], for which the inhibition constant (Ki) (on human H3 receptor; in experiment [1]) was below 200 nM each time.
For `O=S(=O)(c1ccc(-c2ccc3c(c2)COC2(CCN(C4CCC4)CC2)O3)cc1)N1CCOCC1` [Example 17], the Ki (on human H3 receptor; in experiment [1]) was below 200 nM in each case.
As to `NC(=O)c1ccc(-c2ccc3c(c2)COC2(CCN(C4CCC4)CC2)O3)cc1` [Example 18], the inhibition constant (Ki) (at human H3 receptor; in experiment [1]) was below 200 nM in each case.
For the compound `CCS(=O)(=O)c1ccc(-c2ccc3c(c2)COC2(CCN(C4CCC4)CC2)O3)cc1` [Example 20], the Ki (on human H3 receptor; in experiment [1]) was below 200 nM in each case.
Take `CS(=O)(=O)c1ccc(-c2ccc3c(c2)COC2(CCN(C4CCC4)CC2)O3)cc1` [Example 21]: the Ki (on human H3 receptor; in experiment [1]) was below 200 nM throughout.
For the compound `COc1ncc(-c2ccc3c(c2)COC2(CCN(C4CCC4)CC2)O3)cn1` [Example 23], the Ki (on human H3 receptor; in experiment [1]) was below 200 nM each time.
Regarding `O=S(=O)(c1ccc(-c2ccc3c(c2)COC2(CCN(C4CCC4)CC2)O3)cc1)N1CCC1` [Example 24], the inhibitory constant (Ki) (at human H3 receptor; in experiment [1]) was below 200 nM throughout.
As to `O=S(=O)(NC1CC1)c1ccc(-c2ccc3c(c2)COC2(CCN(C4CCC4)CC2)O3)cc1` [Example 25], the inhibitory constant (Ki) (at human H3 receptor; in experiment [1]) was below 200 nM throughout.
Regarding `CN(C)S(=O)(=O)c1ccc(-c2ccc3c(c2)COC2(CCN(C4CCC4)CC2)O3)cc1` [Example 32], the inhibitory constant (Ki) (on human H3 receptor; in experiment [1]) was below 200 nM throughout.
In the case of `NC(=O)Cc1ccc(-c2ccc3c(c2)COC2(CCN(C4CCC4)CC2)O3)cc1` [Example 49], the inhibition constant (Ki) (at human H3 receptor; in experiment [1]) was below 200 nM throughout.
In the case of `Nc1cccc(-c2ccc3c(c2)COC2(CCN(C4CCC4)CC2)O3)c1` [Example 51], the Ki (at human H3 receptor; in experiment [1]) was below 200 nM each time.
Take `NC(=O)Nc1cccc(-c2ccc3c(c2)COC2(CCN(C4CCC4)CC2)O3)c1` [Example 52]: the Ki (on human H3 receptor; in experiment [1]) was below 200 nM throughout.
On to `O=C(c1cccc(-c2ccc3c(c2)COC2(CCN(C4CCC4)CC2)O3)c1)N1CCCCC1` [Example 53], for which the inhibition constant (Ki) (at human H3 receptor; in experiment [1]) was below 200 nM throughout.
Regarding `O=C(NC1CC1)c1cccc(-c2ccc3c(c2)COC2(CCN(C4CCC4)CC2)O3)c1` [Example 55], the Ki (at human H3 receptor; in experiment [1]) was below 200 nM each time.
As for `O=C(c1cccc(-c2ccc3c(c2)COC2(CCN(C4CCC4)CC2)O3)c1)N1CCOCC1` [Example 56], the Ki (at human H3 receptor; in experiment [1]) was below 200 nM throughout.
For `Nc1cccc(-c2ccc3c(c2)COC2(CCN(C4CCCC4)CC2)O3)c1` [Example 61], the inhibitory constant (Ki) at human H3 receptor is below 200 nM.
The same measure, in the same setting: the same measure for `O=C(Nc1cccc(-c2ccc3c(c2)COC2(CCN(C4CCCC4)CC2)O3)c1)c1ccccc1` [Example 62]: below 200 nM; for `CC(C)N1CCC2(CC1)OCc1cc(-c3cccc(N)c3)ccc1O2` [Example 63]: below 200 nM; for `CC(C)N1CCC2(CC1)OCc1cc(-c3ccc4c(c3)CCO4)ccc1O2` [Example 64]: below 200 nM.
Consider `O=S(=O)(c1ccc(-c2ccc3c(c2)COC2(CCN(C4CCC4)CC2)O3)c(F)c1)N1CCOCC1` [Example 65], for which the Ki (at human H3 receptor; in experiment [1]) was below 200 nM in each case.
Turning to `Cc1nc(C)c(-c2ccc3c(c2)COC2(CCN(C4CCC4)CC2)O3)s1` [Example 70], the Ki (at human H3 receptor; in experiment [1]) was below 200 nM in each case.
As to `N#Cc1ccccc1-c1ccc2c(c1)COC1(CCN(C3CCC3)CC1)O2` [Example 73], the Ki (on human H3 receptor; in experiment [1]) was below 200 nM throughout.
`N#Cc1ncc(-c2ccc3c(c2)COC2(CCN(C4CCC4)CC2)O3)s1` [Example 75]: the Ki (on human H3 receptor; in experiment [1]) was below 200 nM in each case.
`N#Cc1ccc(-c2ccc3c(c2)OC2(CCN(C4CCC4)CC2)O3)cc1` [Example 88]: the values for the Ki (on human H3 receptor; in experiment [1]) were 200 to 1000 nM and below 200 nM, respectively.
`O=C(c1ccc(-c2ccc3c(c2)OC2(CCN(C4CCC4)CC2)O3)cc1)N1CCOCC1` [Example 89]: the Ki (on human H3 receptor; in experiment [1]) was below 200 nM each time.
On to `O=C(c1cccc(-c2ccc3c(c2)OC2(CCN(C4CCC4)CC2)O3)c1)N1CCOCC1` [Example 91], for which the Ki (at human H3 receptor; in experiment [1]) was below 200 nM throughout.
`N#Cc1cccc(-c2ccc3c(c2)OC2(CCN(C4CCC4)CC2)O3)c1` [Example 92]: the inhibition constant Ki is 200 to 1000 nM at human H3 receptor and above 1000 nM in experiment [1].
In the case of `O=C(c1cccc(-c2ccc3c(c2)OC2(CCN(C4CCC4)CC2)OC3)c1)N1CCCC1` [Example 94], the inhibitory constant (Ki) (at human H3 receptor; in experiment [1]) was 200 to 1000 nM each time.
Turning to `O=C(c1ccc(-c2ccc3c(c2)CCC2(CCN(C4CCC4)CC2)O3)cc1)N1CCOCC1` [Example 99], the Ki (on human H3 receptor; in experiment [1]) was below 200 nM in each case.
For `CCOc1ccc(-c2ccc3c(c2)CCC2(CCN(C4CCC4)CC2)O3)cn1` [Example 100], the inhibitory constant (Ki) (on human H3 receptor; in experiment [1]) was below 200 nM throughout.
As to `CS(=O)(=O)c1ccc(-c2ccc3c(c2)CCC2(CCN(C4CCC4)CC2)O3)cc1` [Example 101], the Ki (at human H3 receptor; in experiment [1]) was below 200 nM throughout.
Turning to `c1ccc(-c2ccc3c(c2)CCC2(CCN(C4CCC4)CC2)O3)cc1` [Example 102], the Ki (on human H3 receptor; in experiment [1]) was below 200 nM in each case.
